# From PubChem BioAssay AID2627 (Broad Institute, 2010)
# Biological target: Alpha-synuclein (Homo sapiens) (UniProt P37840)
# Experiment: increase of SNCA protein level in cells – Western blot, H4 cells, dose response (AID 2627)
smiles,measurement,value
c1ccc2c(Nc3nnc(-c4ccncc4)s3)cccc2c1,ECmax,1000 nM
